US20240082340A1 (Biohaven Therapeutics Ltd., priority 2021, published 2024)

Key:
[1] = taken with meals; cited from earlier work
[2] = test system: patients diagnosed with Alzheimer's disease of mild-to-moderate severity; assay: T2 Protect AD trial: Neuropsychiatric Inventory (NPI); assay type: in vivo, human; details: for NPI score LS mean change, difference versus placebo: after 48 weeks, troriluzole minus placebo
Excerpt: The NPI is a well-validated, reliable, multi-item instrument to assess psychopathology in AD dementia based on the results of an interview with the study partner (Cummings, 1997). The NPI evaluates both the frequency and severity of 10 neuropsychiatric features, including delusions, hallucinations, agitation/aggression, dysphoria, anxiety, euphoria, apathy, disinhibition, irritability and lability, and aberrant motor behavior, as well as evaluates sleep and appetite/eating disorders. Frequency assessments range from 1 (occasionally, less than once per week) to 4 (very frequently, once or more per day or continuously). Severity assessments range from 1 (mild) to 3 (severe). The score for each subscale is the product of severity and frequency and the total score is the sum of all subscales.
(§1) The T2 Protect AD trial has been conducted, which is a Phase 2/3, randomized, double-blind, placebo-controlled study evaluating the efficacy and safety of troriluzole in patients diagnosed with Alzheimer's disease of mild-to-moderate severity (Mini-Mental State Examination [MMSE] scores of 14-24; mild: 20-24, moderate: 14-19).

[3] = test system: patients diagnosed with Alzheimer's disease of mild-to-moderate severity; assay: T2 Protect AD trial: volumetric MRI hippocampal volume (Quarc); assay type: in vivo, human; details: for Hippocampal Volume Change, Model Estimates, LSMean (SE) Difference: Week 48, placebo vs troriluzole
Excerpt: vMRI allows the in vivo assessment of brain structure volume and provides a measure of atrophy rate. […] Atrophy of the medial temporal lobe, including hippocampus and entorhinal cortex, has long been described in vMRI studies of AD. Hippocampal volume derived from MRI correlates with histological hippocampal volume and degree of neuronal loss and AD pathology, and entorhinal cortical thickness change appears to be an early and sensitive indicator of neurodegeneration associated with AD (Holland et al., 2009; Jack et al., 2004).
Participants will undergo vMRI scans of the brain at screening, week 24 and week 48 in order to assess for changes in brain volumes that may be associated with clinical change due to treatment with BHV-4157.
Volumetric MRI scans will use the same imaging protocol, which will include a localizer scan, a 3D T1-weighted sagittal acquisition (MPRAGE or IR-SPGR), a T2-weighted FLAIR axial acquisition, a T2* gradient recalled echo axial acquisition for magnetic susceptibility, and a diffusion weighted axial acquisition to assess for restricted diffusion.
Images will be checked for image quality and adherence to scanning protocols. 3D T1-weighted datasets passing quality checks will be corrected for spatial distortion and for intensity variation. Screening and follow-up datasets for each participant will be spatially registered to one another using rigid-body registration followed by nonlinear registration and neuroanatomic parcellation to quantify whole-brain and subregional volumetric change on a patient-by patient basis.
Whole brain volume (WBV, excluding cerebellum), bilateral ventricular volume and bilateral hippocampal volume will be measured. Quantitative anatomical regional change (Quarc) will be used as the computational MR image processing application. Detail for the statistical computations is given in the Statistical Analytical Plan (SAP).
as §1

[4] = test system: patients diagnosed with Alzheimer's disease of mild-to-moderate severity; assay: T2 Protect AD trial: CDR-Sum of Boxes; assay type: in vivo, human; details: Week 48; for CDR01-Sum of Boxes, Model Estimates, LSMean (SE) Difference: placebo vs troriluzole
Excerpt: The CDR-SOB (Hughes, Berg, Danziger, Coben, & Martin, 1982) is a validated composite rating of cognition and everyday functioning used in longitudinal AD research which incorporates both informant input and direct assessment of performance. It assesses through semi structured interview 3 cognitive domains including memory, orientation, and judgement/problem solving and 3 everyday functional domains including community affairs, home and hobbies and personal care. There are 5 levels of impairment from none CDR=0 to severe CDR=3. The individual domain scores are added to create a sum of the box scores.
as §1

[5] = test system: patients diagnosed with Alzheimer's disease of mild-to-moderate severity; assay: T2 Protect AD trial: ADAS-Cog 11; assay type: in vivo, human; details: for ADAS-Cog Total Score, Model Estimates, LSMean (SE): change from baseline; for ADAS-Cog Total Score, Model Estimates, LSMean (SE) Difference: placebo vs troriluzole
Excerpt: (§2) The ADAS-Cog 11 evaluates memory (word recall, word recognition), reasoning (following commands), language (naming, comprehension), orientation, ideational praxis (placing a letter in an envelope) and constructional praxis (copying geometric designs). Ratings of spoken language, language comprehension, word finding difficulty, and ability to remember test instructions are also obtained. The test is scored in terms of errors, with higher scores reflecting poorer performance and greater impairment. Scores can range from 0 (best) to 70 (worse).
The primary efficacy endpoint is the within-participant change in ADAS-Cog 11 from baseline to week 48, compared between the treatment group and the placebo group.
as §2, with “11 (Rosen, Mohs, & Davis, 1984) is a structured scale that” for “11”
as §1

[6] = after 48 weeks, mild AD, placebo minus troriluzole
[7] = Week 48, mild-to-moderate AD, 280 mg once daily

In the case of `Nc1nc2ccc(OC(F)(F)F)cc2s1` [Riluzole, riluzole], the “food effect on exposure” value [1] is given as “reduced exposure when taken with meals”.

For `CN(CC(=O)Nc1nc2ccc(OC(F)(F)F)cc2s1)C(=O)CNC(=O)CN` [Troriluzole, troriluzole], the “NPI across subgroups versus placebo” value ([2]; Week 48, only mild AD, only moderate AD, only ApoE4 positive, only ApoE4 negative patients) was “numerical differences of a potential benefit”, the “NPI score LS mean change, difference versus placebo” value ([2]; mild AD) was −2.1 points and the “NPI score LS mean change, difference versus placebo” value ([2]; mild-to-moderate AD) was −1.5 points. For the same molecule, the “Hippocampal Volume Change, Model Estimates, LSMean (SE) Difference” value ([3]; mild AD patients only) was −0.5 (0.38), the “Hippocampal Volume Change, Model Estimates, LSMean (SE) Difference” value ([3]; mild-to-moderate AD) was 0.0 (0.26) and the “hippocampal volume LS mean percent deformation change, difference versus placebo” value [3, 6] was −0.5%. For the same molecule, the “key secondary measure of hippocampal volume assessed by MRI, versus placebo” value ([3]; overall population) was “did not differentiate from placebo”, the “outcome on co-primary endpoint CDR-SB” value ([4]; mild-to-moderate AD) was “did not meet the study's pre-specified co-primary endpoints” and the “CDR01-Sum of Boxes, Model Estimates, LSMean (SE) Difference” value ([4]; mild AD patients only) was −0.3 (0.40). The “CDR01-Sum of Boxes, Model Estimates, LSMean (SE) Difference” value ([4]; mild-to-moderate AD) was −0.2 (0.28), the “ADAS-Cog Total Score, Model Estimates, LSMean (SE)” value ([5]; Week 48, mild AD patients only) was 4.2 and the “ADAS-Cog Total Score, Model Estimates, LSMean (SE)” value [5, 7] was 6.7 (0.70). For the same molecule, the “ADAS-Cog Total Score, Change from Baseline, Mean (SD)” value ([5]; Week 48, mild AD patients only) was 3.9, the “ADAS-Cog Total Score, Analysis Value, Mean (SD)” value ([5]; Week 48, mild AD patients only, 280 mg once daily) was 26.2 and the “outcome on co-primary endpoint ADAS-cog” value ([5]; Week 48, mild-to-moderate AD) was “did not meet the study's pre-specified co-primary endpoints”. For the same molecule, the “ADAS-Cog Total Score, Change from Baseline, Mean (SD)” value [5, 7] was 5.8 (7.40), the “ADAS-Cog Total Score, Change from Baseline, Median” value [5, 7] was 6.0 and the “ADAS-Cog Total Score, Model Estimates, LSMean (SE) Difference” value ([5]; Week 48, mild AD patients only) was 0.7 (1.02). For the same molecule, the “ADAS-Cog Total Score, Model Estimates, LSMean (SE) Difference” value ([5]; Week 48, mild-to-moderate AD) was 0.0 (0.93) and the “ADAS-Cog11 score LS mean change, difference versus placebo” value [5, 6] was 0.7 points.
